Laboratory results as given in article PMC10657444, “Design and evaluation of tadpole-like conformational antimicrobial peptides” (Communications Biology, 2023).
≈ marks a conversion by molar mass, not a printed value. Read-outs that look alike come from different tables or passages of the source. Non-standard residues stand in square brackets, D forms with d. Residues, ends and D or L forms follow the SMILES beside them. *: point of attachment. Octanoyl = CCCCCCCC(=O)*

Tests used:
[1] = test system: A. baumannii 1318; type: cell-based, Acinetobacter baumannii
Text: (§1) Bacteria were cultivated in Luria-Bertani (LB) broth.

[2] = test system: A. baumannii 1337; type: cell-based, Acinetobacter baumannii
Text: as §1

[3] = test system: MRSA ATCC 43300; type: cell-based, Staphylococcus aureus
Text: as §1

[4] = test system: MRSA 3393; type: cell-based, Staphylococcus aureus
Text: as §1

[5] = test system: MRSA USA 300; type: cell-based, Staphylococcus aureus
Text: as §1

[6] = test system: E. coli ATCC 25922; type: cell-based, Escherichia coli
Text: as §1

[7] = test system: E. coli S; type: cell-based, Escherichia coli
Text: as §1

[8] = test system: K. pneumoniae ATCC 700603; type: cell-based, Klebsiella pneumoniae
Text: as §1

[9] = test system: K. pneumoniae 3026; type: cell-based, Klebsiella pneumoniae
Text: as §1

| Structure (SMILES) | MIC Gram- A. b 1318 [1] [µM] | MIC Gram- A. b 1337 [2] [µM] | MIC Gram+ MRSA ATCC 43300 ([3]; ATCC 43300) [µM] | MIC Gram+ MRSA 3393 [4]; 3393 [µM] | MIC Gram+ MRSA USA 300 [5] [µM] | MIC Gram- E. coli ATCC 25922 [6] [µM] | MIC Gram- E. coli S [7] [µM] | MIC Gram- K. p ATCC 700603 [8] [µM] | MIC Gram- K. p 3026 [9] [µM] | MIC Gram+ MRSA ATCC 43300 [3] [µM] | MIC Gram+ MRSA 3393 [4] [µM] |
| --- | --- | --- | --- | --- | --- | --- | --- | --- | --- | --- | --- |
| CC[C@@H](C)[C@@H](NC(=O)[C@@H](CCCNC(=N)N)NC(=O)[C@@H](CCCNC(=N)N)NC(=O)[C@@H](CC(C)C)NC(=O)[C@@H](Cc1ccccc1)NC(=O)[C@H](N)CCCNC(=N)N)C(=O)N[C@H](Cc1ccccc1)C(=O)N[C@H](Cc1ccccc1)C(=O)N[C@H](Cc1ccccc1)C(=O)N[C@H](Cc1ccccc1)C(N)=O [D-HT2] (H-[dR][dF][dL][dR][dR][dI][dF][dF][dF][dF]-NH2; N-terminus assumed) | 6.25 (≈ 9.05 µg/mL) | 12.5 (≈ 18.1 µg/mL) | 6.25 (≈ 9.05 µg/mL) | 6.25 (≈ 9.05 µg/mL) | 6.25 (≈ 9.05 µg/mL) | 50 (≈ 72.4 µg/mL) | 25 (≈ 36.2 µg/mL) | 100 (≈ 145 µg/mL) | > 100 | – | – |
| CC[C@H](C)[C@H](NC(=O)[C@@H](CCCNC(=N)N)NC(=O)[C@H](CCCNC(=N)N)NC(=O)[C@H](CC(C)C)NC(=O)[C@H](Cc1ccccc1)NC(=O)[C@H](Cc1ccccc1)NC(=O)[C@H](Cc1ccccc1)NC(=O)[C@@H](N)Cc1ccccc1)C(=O)N[C@@H](Cc1ccccc1)C(N)=O [F-SHf(R^5,dR^6)] (H-FFFFLR[dR]IF-NH2; N-terminus assumed) | 25 (≈ 32.3 µg/mL) | 25 (≈ 32.3 µg/mL) | 3.13 (≈ 4.04 µg/mL) | 3.13 (≈ 4.04 µg/mL) | 3.13 (≈ 4.04 µg/mL) | > 100 | 25 (≈ 32.3 µg/mL) | > 100 | > 100 | – | – |
| CC[C@H](C)[C@H](NC(=O)[C@H](CCCNC(=N)N)NC(=O)[C@@H](CCCNC(=N)N)NC(=O)[C@H](CC(C)C)NC(=O)[C@H](Cc1ccccc1)NC(=O)[C@H](Cc1ccccc1)NC(=O)[C@H](Cc1ccccc1)NC(=O)[C@@H](N)Cc1ccccc1)C(=O)N[C@@H](Cc1ccccc1)C(N)=O [F-SHf(dR^5)] (H-FFFFL[dR]RIF-NH2; N-terminus assumed) | 25 (≈ 32.3 µg/mL) | 25 (≈ 32.3 µg/mL) | 3.13 (≈ 4.04 µg/mL) | 3.13 (≈ 4.04 µg/mL) | 3.13 (≈ 4.04 µg/mL) | > 100 | 25 (≈ 32.3 µg/mL) | > 100 | > 100 | – | – |
| CC[C@H](C)[C@H](NC(=O)[C@@H](CCCNC(=N)N)NC(=O)[C@@H](CCCNC(=N)N)NC(=O)[C@H](CC(C)C)NC(=O)[C@H](Cc1ccccc1)NC(=O)[C@H](Cc1ccccc1)NC(=O)[C@H](Cc1ccccc1)NC(=O)[C@@H](N)Cc1ccccc1)C(=O)N[C@@H](Cc1ccccc1)C(N)=O [F-SHf(dR^5, 6)] (H-FFFFL[dR][dR]IF-NH2; N-terminus assumed) | 12.5 (≈ 16.1 µg/mL) | 25 (≈ 32.3 µg/mL) | 3.13 (≈ 4.04 µg/mL) | 3.13 (≈ 4.04 µg/mL) | 3.13 (≈ 4.04 µg/mL) | > 100 | 6.25 (≈ 8.07 µg/mL) | 25 (≈ 32.3 µg/mL) | 25 (≈ 32.3 µg/mL) | – | – |
| CC[C@H](C)[C@H](NC(=O)[C@H](CCCNC(=N)N)NC(=O)[C@H](CCCNC(=N)N)NC(=O)[C@H](CC(C)C)NC(=O)[C@H](Cc1ccccc1)NC(=O)[C@H](Cc1ccccc1)NC(=O)[C@H](Cc1ccccc1)NC(=O)[C@H](Cc1ccccc1)NC(=O)[C@@H](N)Cc1ccccc1)C(=O)N[C@@H](Cc1ccccc1)C(N)=O [FF-SHf(R^5)] (H-FFFFFLRRIF-NH2; N-terminus assumed) | 50 (≈ 71.9 µg/mL) | > 100 | 1.57 (≈ 2.26 µg/mL) | – | 3.13 (≈ 4.5 µg/mL) | > 100 | 100 (≈ 144 µg/mL) | > 100 | > 100 | 1.57 (≈ 2.26 µg/mL) | 1.57 (≈ 2.26 µg/mL) |
| CCCCCCCC(=O)N[C@@H](Cc1ccccc1)C(=O)N[C@@H](CC(C)C)C(=O)N[C@@H](CO)C(=O)N[C@@H](CCCNC(=N)N)C(=O)N[C@H](C(=O)N[C@@H](Cc1ccccc1)C(N)=O)[C@@H](C)CC [OA-SHf] (Octanoyl-FLSRIF-NH2) | > 100 | > 100 | 50 (≈ 45.4 µg/mL) | > 100 | > 100 | > 100 | > 100 | > 100 | > 100 | – | – |
| CC[C@H](C)[C@H](NC(=O)[C@H](CCCNC(=N)N)NC(=O)[C@H](CCC(=O)O)NC(=O)[C@H](CC(C)C)NC(=O)[C@H](Cc1ccccc1)NC(=O)[C@H](Cc1ccccc1)NC(=O)[C@@H](N)Cc1ccccc1)C(=O)N[C@@H](Cc1ccccc1)C(N)=O [SHf(E^5)] (H-FFFLERIF-NH2; N-terminus assumed) | > 100 | > 100 | > 100 | > 100 | > 100 | > 100 | > 100 | > 100 | > 100 | – | – |
| CC[C@H](C)[C@H](NC(=O)[C@H](CCCNC(=N)N)NC(=O)[C@H](CO)NC(=O)[C@H](CC(C)C)NC(=O)[C@H](Cc1ccccc1)NC(=O)[C@H](Cc1ccccc1)NC(=O)[C@@H](N)Cc1ccc(O)cc1)C(=O)N[C@@H](Cc1ccccc1)C(N)=O [SHf(Y^1)] (H-YFFLSRIF-NH2; N-terminus assumed) | > 100 | > 100 | > 100 | – | – | > 100 | > 100 | > 100 | > 100 | – | – |
| CC[C@H](C)[C@H](NC(=O)[C@H](CCCNC(=N)N)NC(=O)[C@H](CO)NC(=O)[C@H](CC(C)C)NC(=O)[C@H](Cc1ccccc1)NC(=O)[C@@H](N)Cc1ccccc1)C(=O)N[C@@H](Cc1ccccc1)C(N)=O [SHfΔ1F] (H-FFLSRIF-NH2) | > 100 | > 100 | > 100 | > 100 | > 100 | > 100 | > 100 | > 100 | > 100 | – | – |
| CC[C@H](C)[C@H](NC(=O)[C@H](CCCNC(=N)N)NC(=O)[C@H](CO)NC(=O)[C@H](CC(C)C)NC(=O)[C@@H](N)Cc1ccccc1)C(=O)N[C@@H](Cc1ccccc1)C(N)=O [SHfΔ2F] (H-FLSRIF-NH2; N-terminus assumed) | > 100 | > 100 | > 100 | > 100 | > 100 | > 100 | > 100 | > 100 | > 100 | – | – |
| CC[C@H](C)[C@H](NC(=O)[C@H](CCCNC(=N)N)NC(=O)[C@H](CCCNC(=N)N)NC(=O)[C@H](CC(C)C)NC(=O)[C@H](Cc1ccccc1)NC(=O)[C@H](Cc1ccccc1)NC(=O)[C@H](Cc1ccccc1)NC(=O)[C@@H](N)Cc1ccc(O)cc1)C(=O)N[C@@H](Cc1ccccc1)C(N)=O [Y-SHf(R^5)] (H-YFFFLRRIF-NH2; N-terminus assumed) | > 100 | 50 (≈ 65.4 µg/mL) | 3.13 (≈ 4.09 µg/mL) | 3.13 (≈ 4.09 µg/mL) | 6.25 (≈ 8.17 µg/mL) | 50 (≈ 65.4 µg/mL) | > 100 | > 100 | > 100 | – | – |
| CC[C@H](C)[C@H](NC(=O)[C@H](CCCNC(=N)N)NC(=O)[C@H](CO)NC(=O)[C@H](CC(C)C)NC(=O)[C@H](Cc1ccccc1)NC(=O)[C@H](Cc1ccccc1)NC(=O)[C@H](Cc1ccc(O)cc1)NC(=O)[C@@H](N)Cc1ccc(O)cc1)C(=O)N[C@@H](Cc1ccccc1)C(N)=O [Y-SHf(Y^1)] (H-YYFFLSRIF-NH2; N-terminus assumed) | > 100 | > 100 | – | – | – | > 100 | > 100 | > 100 | > 100 | – | – |
| CC[C@H](C)[C@H](NC(=O)[C@H](CCCNC(=N)N)NC(=O)[C@H](CO)NC(=O)[C@H](CC(C)C)NC(=O)[C@H](Cc1ccccc1)NC(=O)[C@H](Cc1ccccc1)NC(=O)[C@H](Cc1ccccc1)NC(=O)[C@@H](N)Cc1ccc(O)cc1)C(=O)N[C@@H](Cc1ccccc1)C(N)=O [Y-SHf] (H-YFFFLSRIF-NH2; N-terminus assumed) | > 100 | > 100 | 12.5 (≈ 15.5 µg/mL) | 12.5 (≈ 15.5 µg/mL) | 12.5 (≈ 15.5 µg/mL) | > 100 | > 100 | > 100 | > 100 | – | – |
